These results are taken from patent publication US12172959B2, “Mono- or di-substituted indole derivatives as dengue viral replication inhibitors” (priority 2015, dated 2024).

One data set concerns DENV-2 16681 strain. The data set is described as follows: DENV-2 antiviral assay (eGFP fluorescence, Vero cells). The settings on record: DENV-2 16681 eGFP, MOI 0.5, 3 days. The format is cell-based, Dengue virus. How it is done: The antiviral activity of all the compounds of the invention was tested against the DENV-2 16681 strain which was labeled with enhanced green fluorescent protein (eGPF; Table 1). The culture medium consists of minimal essential medium supplemented with 2% of heat-inactivated fetal calf serum, 0.04% gentamycin (50 mg/mL) and 2 mM of L-glutamine. Vero cells, obtained from ECACC, were suspended in culture medium and 25 μL was added to 384-well plates (2500 cells/well), which already contain the antiviral compounds. Typically, these plates contain a 5-fold serial dilution of 9 dilution steps of the test compound at 200 times the final concentration in 100% DMSO (200 nL). […] Finally, each plate contains wells which are assigned as virus controls (containing cells and virus in the absence of compound), cell controls (containing cells in the absence of virus and compound) and medium controls (containing medium in the absence of cells, virus and compounds). To the wells assigned as medium control, 25 μL of culture medium was added instead of Vero cells. Once the cells were added to the plates, the plates were incubated for 30 minutes at room temperature to allow the cells to distribute evenly within the wells. Next, the plates were incubated in a fully humidified incubator (37° C., 5% CO2) until the next day. Then, DENV-2 strain 16681, labeled with eGFP, was added at a multiplicity of infection (MOI) of 0.5. Therefore, 15 μL of virus suspension was added to all the wells containing test compound and to the wells assigned as virus control. In parallel, 15 μL of culture medium was added to the medium and cell controls. Next, the plates were incubated for 3 days in a fully humidified incubator (37° C., 5% CO2). At the day of the read out, the eGFP fluorescence was measured using an automated fluorescence microscope at 488 nm (blue laser). Using an in-house LIMS system, inhibition dose response curves for each compound were calculated and the half maximal effective concentration (EC50) was determined. Therefore, the percent inhibition (I) for every test concentration is calculated using the following formula: I=100*(ST−SCC)/(SVC−SCC); ST, SCC and SVC are the amount of eGFP signal in the test compound, cell control and virus control wells, respectively. The EC50 represents the concentration of a compound at which the virus replication is inhibited with 50%, as measured by a 50% reduction of the eGFP fluorescent intensity compared to the virus control. The EC50 is calculated using linear interpolation.

The test system of another data set is DENV-1 strain TC974#666. The data set is described as follows: Tetravalent RT-qPCR assay Protocol A, serotype 1. The format is cell-based. The settings on record: Dengue virus, DENV1, 72 h, RT-qPCR serotype 1 TC974#666, Vero cells, day 3. The procedure: (§1) The antiviral activity of the compounds of the invention was tested against DENV-1 strain TC974#666 (NCPV; Table 6), DENV-2 strain 16681 (Table 7), DENV-3 strain H87 (NCPV; Table 8) and DENV-4 strains H241 (NCPV; Table 9A) and SG/06K2270DK1/2005 (Eden; Table 9B) in a RT-qPCR assay. Therefore, Vero cells were infected with either DENV-1, or -2, or -3, or -4 in the presence or absence of test compounds. At day 3 post-infection, the cells were lysed and cell lysates were used to prepare cDNA of both a viral target (the 3′UTR of DENV; Table 2) and a cellular reference gene (β-actin, Table 2). Subsequently, a duplex real time PCR was performed on a Lightcycler480 instrument. The generated Cp value is inversely proportional to the amount of RNA expression of these targets. Inhibition of DENV replication by test compound results in a shift of Cp's for the 3′UTR gene. On the other hand, if a test compound is toxic to the cells, a similar effect on β-actin expression will be observed. The comparative ΔΔCp method is used to calculate EC50, which is based on the relative gene expression of the target gene (3′UTR) normalized with the cellular housekeeping gene (β-actin).
(§2) The culture medium consisted of minimal essential medium supplemented with 2% of heat-inactivated fetal calf serum, 0.04% gentamycin (50 mg/mL) and 2 mM of L-glutamine. Vero cells, obtained from ECACC, were suspended in culture medium and 75 μL/well was added in 96-well plates (10000 cells/well), which already contain the antiviral compounds. […] In addition, each plate contains wells which are assigned as virus controls (containing cells and virus in the absence of compound) and cell controls (containing cells in the absence of virus and compound). Once the cells were added in the plates, the plates were incubated in a fully humidified incubator (37° C., 5% CO2) until the next day. Dengue viruses serotype-1, 2, 3 and 4 were diluted in order to obtain a Cp of ˜22-24 in the assay. Therefore, 25 μL of virus suspension was added to all the wells containing test compound and to the wells assigned as virus control. In parallel, 25 μL of culture medium was added to the cell controls. Next, the plates were incubated for 3 days in a fully humidified incubator (37° C., 5% CO2). After 3 days, the supernatant was removed from the wells and the cells were washed twice with ice-cold PBS (˜100 μL). The cell pellets within the 96-well plates were stored at −80° C. for at least 1 day. Next, RNA was extracted using the Cells-to-CT™ lysis kit, according to the manufacturer's guideline (Life Technologies). The cell lysates can be stored at −80° C. or immediately used in the reverse transcription step.
(§3) In preparation of the reverse transcription step, mix A (table 3A) was prepared and 7.57 μL/well was dispensed in a 96-well plate. After addition of 5 μL of the cell lysates, a five minute denaturation step at 75° C. was performed (table 3B). Afterwards, 7.43 μL of mix B was added (table 3C) and the reverse transcription step was initiated (table 3D) to generate cDNA.
(§4) Finally, a RT-qPCR mix was prepared, mix C (table 4A), and 22.02 μL/well was dispensed in 96-well LightCycler qPCR plates to which 3 μL of cDNA was added and the qPCR was performed according to the conditions in table 4B on a LightCycler 480.
(§5) Using the LightCycler software and an in-house LIMS system, dose response curves for each compound were calculated and the half maximal effective concentration (EC50) and the half maximal cytotoxic concentration (CC50) were determined.
(Real-time PCR tracks product formation cycle by cycle.)

In a further data set the test system is DENV-2 strain 16681. Nature of the data set: Tetravalent RT-qPCR assay Protocol A, serotype 2. In kind it is cell-based. The settings on record: Dengue virus, DENV2, 72 h; Protocol A, RT-qPCR serotype 2 16681, Vero cells, day 3; read-out: EC50. The procedure:
as §1, §2, §3, §4, §5

In a further data set the test system is DENV-3 strain H87. The data set is described as follows: Tetravalent RT-qPCR assay Protocol A, serotype 3. The format is cell-based. Conditions: Dengue virus, DENV3, 72 h, RT-qPCR serotype 3 H87, Vero cells, day 3. How it is done:
as §1, §2, §3, §4, §5

A further data set relates to DENV-4 strain H241. The data set is described as follows: Tetravalent RT-qPCR assay Protocol A, serotype 4 H241. In kind it is cell-based. The settings on record: Dengue virus. How it is done: as §1, §2, §3, §4, §5
Data set [1] concerns DENV-4 strain SG/06K2270DK1/2005 (Eden). Nature of the data set: Tetravalent RT-qPCR assay Protocol A, serotype 4 EDEN. The format is cell-based. Conditions: Dengue virus, DENV4, Vero, 72 h. How it is done: as §1, §2, §3, §4, §5
The nature of data set [2]: in vitro. The format is cell-based. The settings on record: African green monkey, CC50. The procedure:
as §1, §2, §5

Data set [3] is described as follows: in vitro. The settings on record: African green monkey.
Data set [4] concerns Vero cells. The data set is described as follows: in vitro. The settings on record: African green monkey, 3 days. The format is cell-based. How it is done: as §1, §2, §5
In data set [5] the test system is Vero cells. The settings on record: African green monkey.

pEC50: −log10 of the molar value. Like-named read-outs stand apart in the source and are kept apart here.

Usually pEC50 stands for the negative decadic logarithm of the EC50, by convention in mol/L.

With `COc1cc(NC(C(=O)c2c[nH]c3cc(OC)ccc23)c2ccc(Cl)cc2OC)cc(S(C)(=O)=O)c1` (single isomer, unassigned) [Compound 3A, 2-(4-chloro-2-methoxyphenyl)-1-(6-methoxy-1H-indol-3-yl)-2-((3-methoxy-5-(methylsulfonyl)phenyl)amino)ethanone], the pEC50 with DENV-2 16681 strain is 9.60; with DENV-1 strain TC974#666, 8.38; in the data set with DENV-2 strain 16681, 9.52; in the data set with DENV-3 strain H87, 7.32; with DENV-4 strain H241 (DENV4, 72 h, Protocol A, RT-qPCR serotype 4 H241, Vero cells, day 3, read-out: EC50), 6.96; in data set [1] it was 8.52. The same molecule registered a CC50 at 3 days in the data set “in vitro [2]” of 5500 nM. The molecule also returned a CC50 in “in vitro [3]” of 7200 nM.

As to `COc1cc(NC(C(=O)c2c[nH]c3cc(OC)c(OC(F)(F)F)cc23)c2ccc(Cl)cc2OC)cc(S(C)(=O)=O)c1` (single isomer, unassigned) [Compound 10A, 2-(4-chloro-2-methoxyphenyl)-2-((3-methoxy-5-(methylsulfonyl)phenyl)amino)-1-(6-methoxy-5-(trifluoromethoxy)-1H-indol-3-yl)ethanone], the pEC50 was 9.92 in the data set on DENV-2 16681 strain; 9.57 with DENV-1 strain TC974#666; 10.24 with DENV-2 strain 16681; 8.43 in the data set on DENV-3 strain H87; 7.96 in the data set with DENV-4 strain H241 (DENV4, Vero, 72 h). This molecule also had a CC50 at 3 days in “in vitro [2]” of 1600 nM. For the same molecule, the CC50 in the data set on Vero cells [4] is 1000 nM; in the data set with Vero cells [5], 2600 nM.
